Where two headings read alike, the source gives them in different places.
Key:
[1] = patients treated with anacetrapib along with baseline statin therapy, compared with just a statin; cited from earlier work
[2] = target: T1, endogenous CETP from serum (Homo sapiens, UniProt P11597); assay: RTA assay of CETP-catalyzed CE and TG transfer in 95% human serum (95% RTA); assay type: biochemical; settings: RTA assay in 95% human serum
T1 construct: yielding a concentration of approximately 15 nM endogenous CETP in the assay; from tissue; host or cells: human serum
T1 sequence (P11597 18-493): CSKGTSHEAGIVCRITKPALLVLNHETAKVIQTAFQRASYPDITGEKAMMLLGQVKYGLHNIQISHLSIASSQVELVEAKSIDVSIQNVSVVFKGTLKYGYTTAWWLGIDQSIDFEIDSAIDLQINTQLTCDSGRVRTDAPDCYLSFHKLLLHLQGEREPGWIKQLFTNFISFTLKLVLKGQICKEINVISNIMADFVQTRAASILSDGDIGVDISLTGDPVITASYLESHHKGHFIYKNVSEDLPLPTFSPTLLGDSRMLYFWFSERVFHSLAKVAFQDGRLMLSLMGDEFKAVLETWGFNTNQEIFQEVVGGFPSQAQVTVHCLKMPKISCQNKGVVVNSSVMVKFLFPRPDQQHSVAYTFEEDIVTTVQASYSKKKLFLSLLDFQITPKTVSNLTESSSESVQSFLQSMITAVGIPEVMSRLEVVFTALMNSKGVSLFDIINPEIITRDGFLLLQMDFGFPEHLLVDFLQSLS

[3] = read-out: IC50 (nM) RTA with 95% HS

| SMILES | IC50 ([2]; read-out: IC50 RTA (95% HS)) | IC50 [2, 3] | other results |
| --- | --- | --- | --- |
| COc1cc(F)c(C(C)C)cc1-c1ccc(C(F)(F)F)cc1CN1C(=O)O[C@H](c2cc(C(F)(F)F)cc(C(F)(F)F)c2)[C@@H]1C [Anacetrapib] |  |  | decrease of LDL-C [1]: 40%; increase of HDL-C [1]: 138% |
| COc1ncc(-c2ccc(C(=O)O)cc2C)cc1-c1ccc(C(F)(F)F)cc1[C@@H]1CC[C@@H]2C1=NO[C@@H]2c1cc(C(F)(F)F)cc(C(F)(F)F)c1 [Example 1A, 4-(5-(2-((3S,3aR,6S)-3-(3,5-bis(trifluoromethyl)phenyl)-3a,4,5,6-tetrahydro-3H-cyclopenta[c]isoxazol-6-yl)-4-(trifluoromethyl)phenyl)-6-methoxypyridin-3-yl)-3-methylbenzoic acid] | 70 nM |  |  |
| COc1ncc(-c2ccc(C(=O)O)cc2C)cc1-c1ccc(C(F)(F)F)cc1[C@H]1CC[C@H]2C1=NO[C@H]2c1cc(C(F)(F)F)cc(C(F)(F)F)c1 [Example 1B, 4-(5-(2-((3R,3aS,6R)-3-(3,5-bis(trifluoromethyl)phenyl)-3a,4,5,6-tetrahydro-3H-cyclopenta[c]isoxazol-6-yl)-4-(trifluoromethyl)phenyl)-6-methoxypyridin-3-yl)-3-methylbenzoic acid] | 10000 nM |  |  |
| COc1ccc(-c2ccc(C(=O)O)cc2C)cc1-c1cnc(C(F)(F)F)cc1[C@@H]1CC[C@@H]2C1=NO[C@@H]2c1cc(C(F)(F)F)cc(C(F)(F)F)c1 [Example 2A, 3′-(4-((3S,3aR,6S)-3-(3,5-bis(trifluoromethyl)phenyl)-3a,4,5,6-tetrahydro-3H-cyclopenta[c]isoxazol-6-yl)-6-(trifluoromethyl)pyridin-3-yl)-4′-methoxy-2-methyl-[1,1′-biphenyl]-4-carboxylic acid] | 1590 nM |  |  |
| COc1ccc(-c2ccc(C(=O)O)cc2C)cc1-c1cnc(C(F)(F)F)cc1[C@H]1CC[C@H]2C1=NO[C@H]2c1cc(C(F)(F)F)cc(C(F)(F)F)c1 [Example 2B, 3′-(4-((3R,3aS,6R)-3-(3,5-bis(trifluoromethyl)phenyl)-3a,4,5,6-tetrahydro-3H-cyclopenta[c]isoxazol-6-yl)-6-(trifluoromethyl)pyridin-3-yl)-4′-methoxy-2-methyl-[1,1′-biphenyl]-4-carboxylic acid] | 10000 nM |  |  |
| COc1ccc(CCC(=O)O)cc1-c1ccc(C(F)(F)F)cc1[C@@H]1CC[C@@H]2C1=NO[C@@H]2c1cc(C(F)(F)F)cc(C(F)(F)F)c1 [Example 4, 3-[2′-{(3S,3aR,6S)-3-[3,5-bis(trifluoromethyl)phenyl]-3a,4,5,6-tetrahydro-3H-cyclopenta[c]isoxazol-6-yl}-6-methoxy-4′-(trifluoromethyl)biphenyl-3-yl]propanoic acid] |  | 3790 nM |  |
| COc1ccc(-c2ccc(C(=O)O)cc2C)cc1-c1ccc(C(F)(F)F)cc1[C@@H]1CC[C@@H]2C1=NO[C@@H]2c1cc(C(F)(F)F)cc(C(F)(F)F)c1 [Example 5, 2″-{(3S,3aR,6S)-3-[3,5-bis(trifluoromethyl)phenyl]-3a,4,5,6-tetrahydro-3H-cyclopenta[c]isoxazol-6-yl}-4′-methoxy-2-methyl-4″- (trifluoromethyl)-1,1′:3′,1″- terphenyl-4-carboxylic acid] |  | 145 nM |  |
| COc1ccc([C@H]2CC[C@H](C(=O)O)CC2)cc1-c1ccc(C(F)(F)F)cc1[C@@H]1CC[C@@H]2C1=NO[C@@H]2c1cc(C(F)(F)F)cc(C(F)(F)F)c1 [Example 6, trans-4-[2′-{(3S,3aR,6S)-3-[3,5-bis(trifluoromethyl)phenyl]-3a,4,5,6-tetrahydro-3H-cyclopenta[c]isoxazol-6-yl}-6-methoxy-4′-(trifluoromethyl)biphenyl-3-yl]cyclohexanecarboxylic acid] |  | 383 nM |  |
| COc1ncc(-c2ccc(C(=O)O)cc2C)cc1-c1ccc(C(F)(F)F)cc1[C@@H]1CC[C@@H]2C1=NO[C@@H]2c1cc(F)cc(C(F)(F)F)c1 [Example 7, 4-(5-(2-((3S,3aR,6S)-3-(3-fluoro-5-(trifluoromethyl)phenyl)-3a,4,5,6-tetrahydro-3H-cyclopenta[c]isoxazol-6-yl)-4-(trifluoromethyl)phenyl)-6-methoxypyridin-3-yl)-3-methylbenzoic acid] |  | 57 nM |  |
| COc1ccc(-c2ccc(C(=O)O)cc2C)cc1-c1ccc(C(F)(F)F)cc1[C@@H]1CC[C@@H]2C1=NO[C@@H]2c1cc(F)cc(C(F)(F)F)c1 [Example 8, 2″-((3S,3aR,6S)-3-(3-fluoro-5-(trifluoromethyl)phenyl)-3a,4,5,6-tetrahydro-3H-cyclopenta[c]isoxazol-6-yl)-4′-methoxy-2-methyl-4″- (trifluoromethyl)-[1,1′:3′,1″- terphenyl]-4-carboxylic acid] |  | 36 nM |  |
| COc1ncc(-c2ccc(C(=O)O)cc2C)cc1-c1ccc(C(F)(F)F)nc1[C@@H]1CC[C@@H]2C1=NO[C@@H]2c1cc(C(F)(F)F)cc(C(F)(F)F)c1 [Example 9, 4-[2′-{3-[3,5-bis(trifluoromethyl)phenyl]-3a,4,5,6-tetrahydro-3H-cyclopenta[c]isoxazol-6-yl}-2 methoxy-6′-(trifluoromethyl)-3,3′-bipyridin-5-yl]-3-methylbenzoic acid] |  | 287 nM |  |

From patent publication US9663534B2, “Fused bicyclic isoxazolines as inhibitors of cholesterol ester transfer protein” (Merck Sharp & Dohme Corp., priority 2013, dated 2017)
